Laboratory results from US9844599B2, “Nitric oxide releasing produgs of therapeutic agents” (priority 2013, dated 2017).
“Also recorded” adds a separate entry of the source. Like-named read-outs stand apart in the source and are kept apart here.

How the values were obtained:
[1] = Stability of prodrugs / release of parent drug in Simulated Gastric Fluid (SGF); type: in vitro ADME
Method: SGF was prepared according to the procedure described in Test Solution—USP. Thus, 0.2 g of sodium chloride and 0.32 g of purified pepsin (Sigma, derived from porcine stomach mucosa with an activity of 800 to 2500 units per mg of protein) were dissolved in 0.7 mL of hydrochloric acid and sufficient water to make 100 mL. This test solution has a pH of about 1.2 and was utilized for in-vitro studies.
The solution of the test compound in acetonitrile (10 μL of […] solution) was dissolved in 990 μL of biological fluid (SGF/SIF/Human Plasma). The resulting reaction mixtures were incubated at 37° C. At specified time intervals, aliquots (60 μL) were withdrawn and added to acetonitrile (200 μL) and mixed well by vortexing for 2 minutes. The mixture was centrifuged at 13000 rpm for 15 min at 4° C., and the supernatant analyzed by HPLC. The amounts (area percentages) of the remaining intact prodrug (if any) and the released metabolite(s) were estimated by HPLC.
This was performed by using HPLC instrument (Waters alliance), pump 2695, and PDA detector 2996 with the following chromatographic parameters: Wavelength −210 nm; Column-Waters X-Terra RP-18, 150×3.9 mm, 5 μm; Injection volume, 25 μL; Run time, 13 min. Mode of operation was linear gradient with mobile phase A: Acetonitrile and B: 0.1% TFA in water (filtered and degassed). Flow rate was 1.0 mL/min at 25° C.

[2] = test system: serum thromboxane B2 (TXB2) formation; assay: Inhibition of serum thromboxane B2 (TXB2) formation; type: in vivo, Sprague-Dawley (SD) rats; conditions: Rattus norvegicus, po, 168 h; SD rats, 30 mg/kg aspirin or equimolar 44.82 mg/kg, o.d., 7 days
Method: Aspirin is used as an antiplatelet agent for the treatment of cardiovascular complications. […] It is therefore possible to achieve complete suppression of platelet. TXA2 (and also TXB2) formation via chronic administration of aspirin at a dose of 30 mg/daily (Patrignani, P., et al. J. Clin. Invest. 1982, 69, 1366-1372). The antiplatelet activity of aspirin (30 mg/kg) and its prodrug I-D1-R1 (at a dose equimolar to 30 mg/kg dose of aspirin) was evaluated in Sprague-Dawley (SD) rats through estimation of serum TXB2 levels (Esser, R. et al., Br. J. Pharmacol. 2006, 144, 538-550) and the experimental results are presented in FIG. 7.
In vivo TXB2 inhibition potential of aspirin and NO-aspirin prodrugs was assessed in Sprague-Dawley (SD) rats; the serum TXB2 levels were estimated according to the reported procedure (R. Esser, R., et al., Br. J. Pharmacol. 2006, 144, 538-550). Thus, vehicle, aspirin (30 mg/kg) or aspirin prodrug I-D1-R1 (44.82 mg/kg which is equivalent to 30 mg/kg dose of aspirin) were administered orally to the overnight fasted SD rats. […] The serum TXB2 concentrations were determined by enzyme immunoassay (EIA) using commercially available TXB2 estimation kit (Cayman Chemicals, USA), according to the method described in kit information booklet.

[3] = Acute gastric ulcerogenesis activity study; conditions: rats, acute oral; aspirin 100 mg/kg, I-D1-R1 298.85 mg/kg, naproxen 100 mg/kg, I-D2-R1 138.67 mg/kg
Method: The animals were sacrificed after 5 h of drug administration. The stomachs of the treated animals were separated, perfused with 2% formalin (10 mL), and a large curvature was excised. The severity of the mucosal damage was assessed on the basis of the size of the observed ulcer lesions in the images captured using a stereomicroscope attached to a digital camera (Stemi 2000, Zeiss, Germany). The Image Pro Plus software (version 5.1) was used to quantify the hemorrhagic/ulcer lesions in pixels and to convert them into mm^2. The total area of lesions was calculated for each treatment group and the measure of gastric ulcers (Mean±SEM) (mm^2) was estimated (FIGS. 5 and 6).

[4] = Stability of prodrugs at RT and at 50° C. (capped vials); type: physicochemical
[5] = simulated gi fluid, 0 h, 1 µM, pH 1.2
[6] = simulated gi fluid, 5 min, 1 µM, pH 1.2
[7] = simulated gi fluid, 10 min, 1 µM, pH 1.2
[8] = simulated gi fluid, 0.5 h, 1 µM, pH 1.2
[9] = simulated gi fluid, 1 h, 1 µM, pH 1.2
[10] = simulated gi fluid, 2 h, 1 µM, pH 1.2
[11] = simulated gi fluid, 3 h, 1 µM, pH 1.2
[12] = simulated gi fluid, 1 µM, pH 1.2

Structure (SMILES)	Release of parent drug on incubation in SGF (in words) [1]	Prodrug Remaining (%) [1, 5]	Prodrug Remaining (%) [1, 6]	Prodrug Remaining (%) [1, 7]	Prodrug Remaining (%) [1, 8]	Prodrug Remaining (%) [1, 9]	Prodrug Remaining (%) [1, 10]	Prodrug Remaining (%) [1, 11]	t1/2 of prodrug in SGF [1, 12]	also measured
CC(=O)Oc1ccccc1C(=O)O [Aspirin, aspirin, reference compound]										AUC of aspirin (released / remaining) in SGF ([1]; 1 µM, pH 1.2): 12348 µM·h; inhibition at 30 mg/kg [2]: 76%
COc1ccc2cc([C@H](C)C(=O)OC(C)O[N+](=O)[O-])ccc2c1 (stereo partly drawn) [I-D2-R1, (2S)-1-(nitrooxy)ethyl 2-(6-methoxynaphthalen-2-yl)propanoate]	released quantitative amounts of the parent drug, naproxen	100.00%	84.68%	74.58%	32.79%	0.00%	0.00%	0.00%		melting point: 69 to 71 °C; Development of gastric ulcers or lesions [3]: none of the animals; Nap (Naproxen) formed on storage ([4]; 50° C., 0 h): NIL; Prodrug (area %) on storage ([4]; 50° C., 0 h): 99.12%; Nap (Naproxen) formed on storage ([4]; 50° C., 25 d): 0.33%; Prodrug (area %) on storage ([4]; 50° C., 25 d): 99.00%; Nap (Naproxen) formed on storage ([4]; RT, 0 h): NIL; Prodrug (area %) on storage ([4]; RT, 0 h): 99.12%; Nap (Naproxen) formed on storage ([4]; RT, 25 d): 0.2%; Prodrug (area %) on storage ([4]; RT, 25 d): 98.87%; Stability on storage (in words) ([4]; both at RT and at 50° C., up to 25 days): remained stable
CCCCC(OC(=O)[C@@H](C)c1ccc2cc(OC)ccc2c1)O[N+](=O)[O-] (stereo partly drawn) [I-D2-R4, (2S)-1-(nitrooxy)pentyl 2-(6-methoxynaphthalen-2-yl)propanoate]	released appreciable amounts of the parent drug naproxen	100%	97.74%	96.18%	90.53%	88.87%	79.97%	71.04%	>3 h	
CC(OC(=O)CCCc1ccc(N(CCCl)CCCl)cc1)O[N+](=O)[O-] (stereo not shown) [I-D3-R1, 1-(nitrooxy)ethyl 4-(4-(bis(2-chloroethyl)amino)phenyl)butanoate]										Prodrug Remaining (%) ([1]; SGF, 0 min): 92.12%; Prodrug Remaining (%) ([1]; SGF, 5 min): 20.49%; Prodrug Remaining (%) ([1]; SGF, 10 min): 13.84%; Prodrug Remaining (%) ([1]; SGF, 15 min): 8.59%; Prodrug Remaining (%) ([1]; SGF, 30 min): 0.00%; Prodrug Remaining (%) ([1]; SGF, 60 min): 0.00%; Prodrug Remaining (%) ([1]; SGF, 120 min): 0.00%; Prodrug Remaining (%) ([1]; SGF, 180 min): 0.00%; Release of parent drug on incubation in SGF (in words) ([1]; SGF, whole time course): quantitative release of the parent drug, chlorambucil; also recorded: released its parent drug chlorambucil quantitatively; half-life at 1 µM ([1]; simulated gi fluid, pH 1.2, SGF, read-out: t1/2 of prodrug in SGF): < 5 min
CC(=O)Oc1ccccc1C(=O)Oc1cccc(CO[N+](=O)[O-])c1 [II-D1-X1, reference compound]										Fate of prodrug on incubation in SGF (in words) [1]: remained intact; % of Prodrug remaining (μM) [1, 5]: 100.00%; % of Prodrug remaining (μM) [1, 6]: 100.00%; % of Prodrug remaining (μM) [1, 7]: 100.00%; % of Prodrug remaining (μM) [1, 8]: 100.00%; % of Prodrug remaining (μM) [1, 9]: 100.00%; % of Prodrug remaining (μM) [1, 10]: 100.00%

Further lines, with some results ahead:

Release of parent drug on incubation in SGF (in words) [1]	Prodrug Remaining (%) [1, 5]	Prodrug Remaining (%) [1, 6]	Prodrug Remaining (%) [1, 7]	Prodrug Remaining (%) [1, 8]	Prodrug Remaining (%) [1, 9]	Prodrug Remaining (%) [1, 10]	Prodrug Remaining (%) [1, 11]	t1/2 of prodrug in SGF [1, 12]	Structure (SMILES)	also measured
released naproxen	100%	94.33%	90.43%	62.15%	51.01%	39.08%	6.77%	~1 h	CCC(OC(=O)[C@@H](C)c1ccc2cc(OC)ccc2c1)O[N+](=O)[O-] (stereo partly drawn) [I-D2-R2, (2S)-1-(nitrooxy)propyl 2-(6-methoxynaphthalen-2-yl)propanoate]	
released naproxen	100%	96.35%	93.61%	82.73%	75.48%	57.55%	39.00%	~2.5 h	CCCC(OC(=O)[C@@H](C)c1ccc2cc(OC)ccc2c1)O[N+](=O)[O-] (stereo partly drawn) [I-D2-R3, (2S)-1-(nitrooxy)butyl 2-(6-methoxynaphthalen-2-yl)propanoate]	
no release of parent drug naproxen	100.00%	99.68%	99.79%	99.75%	99.67%	99.39%	99.19%		COc1ccc2cc([C@H](C)C(=O)OCCO[N+](=O)[O-])ccc2c1 [II-D2-X2, reference compound]	Fate of prodrug on incubation in SGF (in words) [1]: remained intact
	100.00%	100.00%	100.00%	100.00%	100.00%	100.00%	100.00%		COc1ccc2cc([C@H](C)C(=O)OCCCO[N+](=O)[O-])ccc2c1 [II-D2-X3, reference compound]	
	100.00%	100.00%	100.00%	100.00%	100.00%	100.00%	100.00%		COc1ccc2cc([C@H](C)C(=O)OCCCCO[N+](=O)[O-])ccc2c1 [II-D2-X4, reference compound]	
